We go through 23 molecules from ChEMBL document CHEMBL1240296, “Pharmacological inhibitors of glycogen synthase kinase 3” (Trends Pharmacol Sci, 2004).

The structures appear in SMILES notation.

Sequence of Glycogen synthase kinase-3 beta (P49841 whole entry): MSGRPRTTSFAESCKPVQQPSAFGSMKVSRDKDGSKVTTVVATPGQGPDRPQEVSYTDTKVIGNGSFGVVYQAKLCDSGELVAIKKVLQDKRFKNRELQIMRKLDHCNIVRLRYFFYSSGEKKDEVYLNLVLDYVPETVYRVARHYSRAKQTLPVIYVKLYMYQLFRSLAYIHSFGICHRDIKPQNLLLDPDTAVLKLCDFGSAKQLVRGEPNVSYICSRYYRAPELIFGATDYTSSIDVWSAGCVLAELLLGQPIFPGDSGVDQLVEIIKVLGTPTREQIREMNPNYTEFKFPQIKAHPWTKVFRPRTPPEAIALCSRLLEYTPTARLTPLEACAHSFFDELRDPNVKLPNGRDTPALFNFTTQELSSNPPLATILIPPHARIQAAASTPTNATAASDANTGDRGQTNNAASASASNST

The target of one experiment is Glycogen synthase kinase-3 alpha (Homo sapiens, UniProt P49840).
Sequence of Glycogen synthase kinase-3 alpha (P49840 whole entry): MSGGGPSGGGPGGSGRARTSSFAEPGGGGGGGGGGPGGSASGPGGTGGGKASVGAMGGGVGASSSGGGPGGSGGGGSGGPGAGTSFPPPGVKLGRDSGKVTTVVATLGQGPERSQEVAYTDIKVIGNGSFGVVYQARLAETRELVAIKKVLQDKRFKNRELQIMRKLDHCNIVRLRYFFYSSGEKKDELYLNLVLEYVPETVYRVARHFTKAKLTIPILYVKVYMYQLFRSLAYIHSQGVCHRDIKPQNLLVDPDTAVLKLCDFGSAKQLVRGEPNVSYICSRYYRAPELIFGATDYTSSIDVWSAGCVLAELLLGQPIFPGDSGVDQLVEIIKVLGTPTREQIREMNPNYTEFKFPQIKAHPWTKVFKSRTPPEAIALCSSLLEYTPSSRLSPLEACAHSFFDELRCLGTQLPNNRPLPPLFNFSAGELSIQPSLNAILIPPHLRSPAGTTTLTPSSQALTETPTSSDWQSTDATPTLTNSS
The IC50 is the concentration that gives 50% inhibition. Consider `Nc1nc(NCCNc2ncc(-c3ncc[nH]3)c(-c3ccc(Cl)cc3Cl)n2)ccc1[N+](=O)[O-]`, for which the half-inhibitory concentration (IC50) is 0.65 nM.

A further experiment addresses Glycogen synthase kinase-3 beta (Homo sapiens, UniProt P49841).
Take `Nc1cccc(-c2cc3c(Oc4cccc(O)c4)ncnc3[nH]2)c1`: the concentration for half-maximal inhibition (IC50) was 30 nM.
Still for that read-out and setting: as for `CN(C)CCCn1cc(C2=C(c3c[nH]c4ccccc34)C(=O)NC2=O)c2ccccc21` [GF-109203], the figure is 190 nM; as for `COc1cccc(-n2ncc3c(N/N=C/c4ccncc4)ncnc32)c1` [GW784752X], 16 nM; as for `O=C1NC(=O)C2=C1c1cn(c3ncccc13)CCOCCOCCOCCOCCn1cc2c2cccnc21`, 34 nM.
Regarding `Cn1cc(C2=C(c3cn(CCCSC(=N)N)c4ccccc34)C(=O)NC2=O)c2ccccc21` [BISINDOLYLMALEIMIDE IX], the IC50 is 3 nM.
`O=C1NC(=O)C2=C1c1cn(c3ncccc13)CCCC1=CC=C(CCCn3cc2c2cccnc23)S1`: inhibition was half-maximal at 36 nM (IC50).

Tested on in another experiment: not listed separately
Put plainly: Inhibition of GSK3.
For `CCCCc1c(-c2ccc(O)cc2)[nH]c2nccnc12` [ALOISINE A], the half-maximal inhibitory concentration (IC50) was found to be 650 nM.
Same read-out and setting: as for `CC(C)c1c(-c2ccc(Cl)cc2)[nH]c2nccnc12`, the figure is 750 nM; as for `O=Nc1c(-c2c(O)[nH]c3ccccc23)[nH]c2ccccc12` [INDIRUBIN-3-MONOXIME], 5 nM; as for `OCCCNc1cc(-c2ccnc(Nc3cccc(Cl)c3)n2)ccn1`, 10 nM.
Still for that read-out and setting: as for `COc1ccc2c(c1)/C(=C/c1cnc[nH]1)C(=O)N2` [SU-9516], the figure is 330 nM.
The same measure, in the same setting: as for `CN1CC[C@H](c2c(O)cc(O)c3c(=O)cc(-c4ccccc4Cl)oc23)[C@H](O)C1` [ALVOCIDIB], the figure is 450 nM; as for `NC1N=Nc2nc3ccccc3nc21` (configuration not stated), 1000 nM.
In turn, `CN[C@@H]1C[C@H]2O[C@@](C)([C@@H]1OC)n1c3ccccc3c3c4c(c5c6ccccc6n2c5c31)C(=O)NC4` [STAUROSPORINE] returned a 50% inhibitory concentration (IC50) of 15 nM.

Another experiment concerns the target Glycogen synthase kinase-3 (Homo sapiens, UniProt P49840+P49841). Type of experiment: protein assay.
`CN1CCN(c2ccc(NCCNc3ccc([N+](=O)[O-])c(N)n3)nc2-c2ccc(Cl)cc2Cl)C(=O)C1` had an IC50 of 4 nM.

For the next experiment, the target named is Cyclin-dependent kinase 1/cyclin B (Homo sapiens, UniProt P06493). The class given is protein-complex assay.
With `Cn1sc(=O)n(Cc2ccccc2)c1=O`, the IC50 is greater than 10000 nM.
The same measure, in the same setting: under `CC(C)c1c(-c2ccc(Cl)cc2)[nH]c2nccnc12` stands 850 nM.
The same measure, in the same setting: as for `CN(C)CCCn1cc(C2=C(c3c[nH]c4ccccc34)C(=O)NC2=O)c2ccccc21` [GF-109203], the figure is 2300 nM; as for `Cn1cc(C2=C(c3ccc(Cl)cc3Cl)C(=O)NC2=O)c2ccccc21` [SB-216763], 550 nM; as for `Nc1nc(NCCNc2ncc(-c3ncc[nH]3)c(-c3ccc(Cl)cc3Cl)n2)ccc1[N+](=O)[O-]`, 3700 nM.
On the same count and under the same terms, under `O=C1NC(=O)C(c2ccccc2[N+](=O)[O-])=C1Nc1ccc(O)c(Cl)c1` stands 900 nM; under `NC1N=Nc2nc3ccccc3nc21` (configuration not stated), 600 nM.
Take `Ic1cccc(CSc2nnc(-c3ccncc3)o2)c1`: the IC50 is greater than 10000 nM.

The target of a further experiment is Cyclin-dependent kinase 2/cyclin A (Homo sapiens) (UniProt P24941+P20248+P78396). Briefly: (§1) Inhibition of CDK2/cyclinA at 10 mM. Type of experiment: protein-complex assay.
A word on the inhibition: it is the drop in the measured response relative to a control, in per cent. Read a low inhibition as a response near the control. Turning to `CN(C)CCC(=O)Nc1n[nH]c2nnc(-c3ccccc3)cc12`, the inhibition stood at 90%.

The target in another experiment is Cyclin-dependent kinase 2/cyclin A (Homo sapiens, UniProt P24941). Described as §1. The class given is protein-complex assay.
Consider `Nc1nonc1-n1nnc(-c2nnc(-c3ccncc3)[nH]2)c1CN1CCCCC1`, for which the half-maximal inhibitory concentration (IC50) was greater than 250 µM.
On the same count and under the same terms, as for `O=C1NC(=O)C(c2cccc(Cl)c2)=C1Nc1ccc(Cl)c(C(=O)O)c1`, the figure is greater than 10 µM.
